# From patent US20050080142A1 (priority 2003, published 2005)
# Columns and labels:
# Assay type in all cases: cell-based
# [1] = system: Tetrahymena (Trophozoite)
# [2] = system: Acanthamoeba (Trophozoite)
# [3] = system: Acanthamoeba (Cyst)
compound,measurement,setting,value
N=C(N)N [Guanidine],"Minimal Lethal Concentration, Tetrahymena (Trophozoite)",[1],400 µg/mL
same,"Minimal Lethal Concentration, Acanthamoeba (Trophozoite)",[2],500 µg/mL
same,"Minimal Lethal Concentration, Acanthamoeba (Cyst)",[3],500 µg/mL
CCCCCCCCCCCCNC(=N)N [Dodecylguanidine],"Minimal Lethal Concentration, Tetrahymena (Trophozoite)",[1],10 µg/mL
same,"Minimal Lethal Concentration, Acanthamoeba (Trophozoite)",[2],25 µg/mL
same,"Minimal Lethal Concentration, Acanthamoeba (Cyst)",[3],40 µg/mL
[H]/N=C(\N/C(=N/[H])NCCCCCCNC(=N)NC(=N)Nc1ccc(Cl)cc1)Nc1ccc(Cl)cc1 [Chlorhexidine],"Minimal Lethal Concentration, Tetrahymena (Trophozoite)",[1],15 µg/mL
same,"Minimal Lethal Concentration, Acanthamoeba (Trophozoite)",[2],10 µg/mL
same,"Minimal Lethal Concentration, Acanthamoeba (Cyst)",[3],50 µg/mL
